In US11400106B2, “Methods for inhibiting microbe growth” (priority 2018, dated 2022):
Values after ≈ are worked out from the molar mass of the structure shown. Where two headings read alike, the source gives them in different places.

Columns and labels:
MRSA [1] = test: Time kill curve; format: cell-based, Staphylococcus aureus; conditions: 256 μg/mL azithromycin, 50 mM bicarbonate, 4 hours
Procedure: Experiments to measure the effect of bicarbonate on bactericidal activity of azithromycin were completed according to a Clinical & Laboratory Standards Institute (CLSI) protocol. Briefly, the various treatments were added to logarithmic-phase culture of MRSA in CA-MHB at the concentrations indicated in FIG. 39 and incubated at 37° C. At time points indicated in FIG. 39, cell suspensions were 10-fold serially diluted using sterile PBS buffer and spread on plates of MHB agar. Bacterial colonies were counted after cultivation at 37° C. for 24 hours.

P. aeruginosa [2] = test: Checkerboard azithromycin and sodium bicarbonate against P. aeruginosa; format: cell-based, Pseudomonas aeruginosa
Procedure: (§1) Standard checkerboard broth microdilution assays were set-up in 96-well microtiter plates with serially diluted 8 (or 10) concentrations of each drug (or bicarbonate), using the conditions based on CLSI guidelines, as noted above. All checkerboards were conducted in duplicate.
(§2) To assess the dose-dependence of the interaction of azithromycin and bicarbonate, standard microbroth checkerboard techniques in MRSA and P. aeruginosa were used. For both pathogens, enhancement of the activity of azithromycin was further pronounced with increasing concentrations of sodium bicarbonate, as shown in FIG. 34A and FIG. 34B, respectively. This is consistent in various different isolates of the pathogens. Evident within these checkerboards is the inherent resistance of MRSA and P. aeruginosa to azithromycin in the absence of bicarbonate, where >64 μg/mL of azithromycin was required to inhibit growth to less than 10% growth.

P. aeruginosa CA1216 = test: Mouse model of skin infection, neutropenic Balb/c mice; format: in vivo, Pseudomonas aeruginosa; conditions: topical 200 μg/mL azithromycin with 40 mM sodium bicarbonate, 25 hours post-infection
Procedure: The effect of bicarbonate on antimicrobial activity of azithromycin against P. aeruginosa was tested in a mouse model of skin infection. Balb/c mice (6-8 weeks old, female) were rendered neutropenic. Mice were treated with cyclophosphamide on day −4 (150 mg/kg) and day −1 (100 mg/kg). The following compositions were prepared: (1) Vehicle: 5 mg/mL MC, 1% DMSO; […] A 10 mg/mL methylcellulose (MC) solution was made from methylcellulose 4000 cp. 100 mL of sterile water was heated in a microwave for 30 seconds prior to adding to MC to improve solubility. The composition was shaken on a vortex for ˜20 min to completely dissolve. The compositions for mouse treatments were prepared as follows: (1) Vehicle: 980 μL sterile water, 20 μL, DMSO, 1 mL MC (10 mg/mL); […] Each composition was vortexed after preparation. […] The inoculum was diluted and plated on LB to quantify colony-forming units (CFU). The mice were weighed. Buprenorphine IP (0.025 mg/kg) was administered as an analgesic. To anaesthetize the mice, isoflurane (gaseous anesthetic) was administered. […] The fur was stripped from the back of the neck using autoclave tape. An area of ˜2 cm^2 was tape stripped by applying and removing the tape 25-30 times. […] Mice were placed into a recovery cage and monitored until the righting reflex returned. Mice were singly housed and monitored after infection. […]

MRSA [3] = test: Checkerboard azithromycin and sodium bicarbonate against MRSA; format: cell-based, Staphylococcus aureus
Procedure: as §1, §2

[4] = system: macrolide-resistant strain of MRSA; test: Cellular accumulation of azithromycin by LC-MS/MS; format: cell-based, Staphylococcus aureus; conditions: azithromycin 512 μg/mL, 10 minutes contact
Procedure: A method to measure azithromycin accumulation into a macrolide-resistant strain of MRSA was adapted from a protocol described in Richter et al., Nature 545, pp. 299-304 (2017). Liquid chromatography with tandem mass spectroscopy (LC-MS/MS) was used to quantify accumulation of azithromycin in the absence or presence of 50 mM sodium bicarbonate. Azithromycin was used at 512 μg/mL (because the strain is macrolide-resistant). The azithromycin (in the absence or presence of bicarbonate) was in contact with the MRSA for 10 minutes.

[5] = system: methicillin-resistant Staphylococcus aureus (MRSA); test: Susceptibility testing of MRSA clinical isolates (n=100); format: cell-based; conditions: for MIC50 / MIC90 / MIC: Staphylococcus aureus, MRSA
Procedure: (§3) This study included one hundred (n=100) clinical isolates of methicillin-resistant Staphylococcus aureus (MRSA) and ninety-two (n=92) clinical isolates of P. aeruginosa. All samples were collected from patients at Hamilton Health Sciences hospitals (Hamilton, Ontario, Canada). Isolates, regardless of site of infection, were selected for study if they were resistant to three or more antibiotics. The isolates were cultured on plates and subsequently tested for antimicrobial susceptibility. Initial culture and antibiotic susceptibility testing were performed by Hamilton General Hospital General Microbiology Laboratory using a VITEK 2 Automated System and its Advanced Expert System (bioMerieux) and were compliant with Clinical & Laboratory Standards Institute (CLSI) antibiotic susceptibility testing formulations. Both quantitative minimum inhibitory concentration (MIC) and CLSI breakpoints were reported for each antibiotic. Additionally, a total of 7 conjunctival-sourced ocular isolates of Streptococcus pneumoniae collected by the International Health Management Associates (IHMA) from various locations in the United States were used in the study.
(§4) Antimicrobial sensitivity of the pathogenic strains was determined in compliance with the CLSI protocol. Mueller-Hinton agar plates were used to streak out bacterial species and the direct colony suspension method for inoculum preparation was used to make a suspension of the organism in saline to the density of a McFarland 0.5 turbidity standard. Cation-adjusted Mueller-Hinton broth (CA-MHB) manufactured according to ISO technical standard was used for susceptibility testing in standard 96-well microdilution plates. All antibiotics were purchased as powders from Sigma-Aldrich Canada Co. (Oakville, Canada) and dissolved in appropriate solvent to provide stock solutions as instructed by the manufacturer. Desired test antibiotic solutions were diluted in solvent at a highest test concentration resulting in 256 μg/mL. Where sodium bicarbonate was used, aqueous sterile-filtered sodium bicarbonate solution (7.5% stock) from Sigma-Aldrich Canada Co. (Oakville, Canada) was diluted to the desired concentration in CAMHB. Plates were incubated for 18 hours at 37° C. and read at 600 nm on a Tecan, infinite M1000 PRO plate reader. In accordance with CLSI, methods with appropriate medium supplements for fastidious streptococci (2.5% lysed horse blood, Innovative Research, Inc., Novi, Mich.) were used. […] All MICs in the study were conducted in duplicate.

S. pneumoniae = test: Susceptibility testing of conjunctival isolates of S. pneumoniae; format: cell-based; conditions: Streptococcus pneumoniae, bicarbonate as in label
Procedure: as §3
Antimicrobial sensitivity of the pathogenic strains was determined in compliance with the CLSI protocol. […] Plates were incubated for 18 hours at 37° C. and read at 600 nm on a Tecan, infinite M1000 PRO plate reader. […]

P. aeruginosa [6] = test: Susceptibility testing of P. aeruginosa clinical isolates (n=92); format: cell-based, Pseudomonas aeruginosa; conditions: Pseudomonas aeruginosa, P. aeruginosa, n = 92 isolates, bicarbonate as in label
Procedure: as §3, §4

Acinetobacter baumannii = test: MIC determination against Acinetobacter baumannii; format: cell-based; conditions: Acinetobacter baumannii
Procedure: (§5) In the following experiments, bacterial cells were cultured in 96-well microtiter plates in cation-adjusted Mueller-Hinton Broth (MHB) for 18 h at 37° C. The main strains used were E. coli (K-12 BW25113) (placed in stationary incubator) and S. aureus (Newman Strain) (incubated at 250 r.p.m). Knockout strains (ΔtolcC and ΔychM) were used from the Keio knockout collection (Baba et al., Construction of Escherichia coli K-12 in-frame, single-gene knockout mutants: the Keio collection. Mol Syst Biol 2, 2006 0008, doi:10.1038/msb4100050 (2006)). For MIC determination and checkerboard analyses, Clinical & Laboratory Standards Institute (CLSI) protocol was used. […] DiSC3 loading of S. aureus cells was performed as previously described (Farha et al., Collapsing the proton motive force to identify synergistic combinations against Staphylococcus aureus. Chemistry & biology 20, 1168-1178, doi:10.1016/j.chembiol.2013.07.006 (2013)). CCCP concentration of 20 μM was used. pH adjustments were made by addition of HCl or NaOH. INT assay and ATP bioluminescence assays were performed as previously described (Farha et al., Collapsing the proton motive force to identify synergistic combinations against Staphylococcus aureus. Chemistry & biology 20, 1168-1178, doi:10.1016/j.chembiol.2013.07.006 (2013)). For chemical-genomic studies, the Keio library was grown overnight in cation-adjusted MHB broth, in 384-well plates. From these, treatment plates (25 mM sodium bicarbonate, or a sterile water control) were inoculated and grown for 15 hours at 37° C., in a stationary incubator. Data was normalized according to Mangat et al (Mangat et al., Rank ordering plate data facilitates data visualization and normalization in high-throughput screening. J Biomol Screen 19, 1314-1320, doi:10.1177/1087057114534298 (2014)), with gene products and GO terms mined from EcoCyc. The GFP promoter library (Keseler et al., EcoCyc: fusing model organism databases with systems biology. Nucleic Acids Res 41, D605-612, doi:10.1093/nar/gks1027 (2013)) was grown for 18 hours at ambient temperature with the same inoculation strategy as with the Keio collection. The analysis pipeline of Zaslaver et al (Zaslaver et al., A comprehensive library of fluorescent transcriptional reporters for Escherichia coli. Nat Methods 3, 623-628, doi:10.1038/nmeth895 (2006)) was used to generate maps of promoter activity, from which lists of promoters with increased or decreased activity were compiled.

Pseudomonas aeruginosa = test: MIC determination against Pseudomonas aeruginosa; format: cell-based
Procedure: as §5, with “The GFP promoter library (Keseler et al., EcoCyc: fusing model organism databases with systems biology. Nucleic Acids Res 41, D605-612, doi:10.1093/nar/gks1027 (2013)) was grown for 18 hours at ambient temperature with the same inoculation strategy as with the Keio collection. The analysis pipeline of Zaslaver et al (Zaslaver et al., A comprehensive library of fluorescent transcriptional reporters for Escherichia coli. Nat Methods 3, 623-628, doi:10.1038/nmeth895 (2006)) was used to generate maps of promoter activity, from which lists of promoters with increased or decreased activity were compiled.” left out

Enterococcus faecium = system: Enterococcus faecium
Procedure: as §5

S. aureus [7] = conditions: S. aureus grown with 25 mM sodium bicarbonate vs untreated
Procedure: as §5

E. coli [8] = conditions: 25 mM sodium bicarbonate
Procedure: as §5

S. aureus [9] = test: FIC index of pentamidine combined with various salts (checkerboard); format: cell-based, Staphylococcus aureus; conditions: combination of pentamidine isethionate with each salt; FICI≤0.5 synergy, 1-2 additivity, >4 antagonism
Procedure: as §5

S. aureus [10] = test: microbe, parasite or virus in culture; conditions: Staphylococcus aureus
E. coli [11] = test: microbe, parasite or virus in culture; format: cell-based, Escherichia coli
S. aureus [12] = conditions: 25 mM sodium bicarbonate, BCECF-AM
Procedure: S. aureus cells were loaded with the pH sensitive dye BCECF-AM and were washed and resuspended in PBS. Following baseline readings, PBS (grey circles) or 25 mM sodium bicarbonate (black circles) were added at the arrow and fluorescence measured over time. A standard curve for intracellular pH calibration was used to calculate intracellular pH.

Klebsiella pneumoniae = test: MIC determination against Klebsiella pneumoniae; format: cell-based
Procedure: as §5, with “The GFP promoter library (Keseler et al., EcoCyc: fusing model organism databases with systems biology. Nucleic Acids Res 41, D605-612, doi:10.1093/nar/gks1027 (2013)) was grown for 18 hours at ambient temperature with the same inoculation strategy as with the Keio collection. The analysis pipeline of Zaslaver et al (Zaslaver et al., A comprehensive library of fluorescent transcriptional reporters for Escherichia coli. Nat Methods 3, 623-628, doi:10.1038/nmeth895 (2006)) was used to generate maps of promoter activity, from which lists of promoters with increased or decreased activity were compiled.” left out

[13] = increasing concentrations of sodium bicarbonate
[14] = MRSA isolates, in the presence of 50 mM bicarbonate
[15] = n = 100 isolates, bicarbonate as in label

CC[C@H]1OC(=O)[C@H](C)[C@@H](O[C@H]2C[C@@](C)(OC)[C@@H](O)[C@H](C)O2)[C@H](C)[C@@H](O[C@@H]2O[C@H](C)C[C@H](N(C)C)[C@H]2O)[C@](C)(O)C[C@@H](C)CN(C)[C@H](C)[C@@H](O)[C@]1(C)O [Azithromycin]
bactericidal action in the presence vs absence of bicarbonate (MRSA [1]): superior bactericidal action | concentration required to inhibit growth to less than 10% growth (P. aeruginosa [2]; in the absence of bicarbonate): > 64 µg/mL | dose-dependence of the interaction with sodium bicarbonate (P. aeruginosa [2]; [13]): enhancement | effect of bicarbonate on antimicrobial activity in vivo (CFU) (P. aeruginosa CA1216): enhanced | concentration required to inhibit growth to less than 10% growth (MRSA [3]; in the absence of bicarbonate): > 64 µg/mL | dose-dependence of the interaction with sodium bicarbonate (MRSA [3]; [13]): enhancement | increase in accumulation in the presence of 50 mM bicarbonate [4]: approximately 2.5 fold | eradication rate ([5]; MRSA isolates, 50 mM bicarbonate added): 90% | eradication rate ([5]; MRSA isolates, without bicarbonate): 7% | MIC50 [5, 14]: 1 µg/mL | MIC90 [5, 14]: 2 µg/mL | MIC50 [5, 15]: 128 µg/mL (≈ 171 µM) | MIC90 [5, 15]: > 256 µg/mL | MIC ([5]; n = 100 isolates, bicarbonate as in label, read-out: Maximum MIC obtained): > 256 µg/mL | MIC ([5]; n = 100 isolates, bicarbonate as in label, read-out: Minimum MIC obtained): 1 µg/mL (≈ 1.34 µM) | MIC (S. pneumoniae; macrolide-resistant S. pneumoniae strain, read-out: MIC, #1186268 (R)): 32 µg/mL (≈ 42.7 µM) | MIC (S. pneumoniae; macrolide-susceptible S. pneumoniae strain, read-out: MIC, #1173373 (S)): 0.25 µg/mL (≈ 0.334 µM) | MIC50 (P. aeruginosa [6]): 64 µg/mL (≈ 85.4 µM) | MIC90 (P. aeruginosa [6]): 256 µg/mL (≈ 342 µM) | MIC (P. aeruginosa [6]; read-out: Maximum MIC obtained): > 256 µg/mL | MIC (P. aeruginosa [6]; read-out: Minimum MIC obtained): 0.5 µg/mL (≈ 0.668 µM)

O=C([O-])O.[Na+] [Sodium bicarbonate]
MIC (Acinetobacter baumannii): 50 mM | MIC (Pseudomonas aeruginosa): >100 mM | MIC (Enterococcus faecium): 50 to 100 mM | uptake of DiSC3(5) (S. aureus [7]): increased uptake | reduction of intracellular ATP levels compared to untreated control (E. coli [8]): ~30% | reduction of cellular respiration (E. coli [8]; INT to INT-formazan, 60 min): 70% | FIC Index (with pentamidine in S. aureus) (S. aureus [9]): 0.31 | MIC (S. aureus [10]): 50 to 100 mM | MIC of dirithromycin in the presence of the salt (E. coli [11]; E. coli, salt at 25 mM, pH adjusted to 7.4): 4 µg/mL | MIC (E. coli [11]; Escherichia coli): 100 mM | change in cytoplasmic pH (S. aureus [12]): rapid cytoplasmic alkalinization | MIC (Klebsiella pneumoniae): 100 mM
